14 compounds from patent US11685761B2, “Cyclic di-nucleotide compounds as sting agonists” (Merck Sharp & Dohme Corp., priority 2017, dated 2023) can be followed below.

The test system of test [1] is IFN-β secretion from THP1 cells. As to the kind of experiment: IFN-β secretion in THP1 cell culture (5 h). It counts as cell-based, human. The note with it: THP1 cells, 5 h incubation, compound at 30 μM, 30 uM cGAMP = 100%; for activation at 30 µM: Homo sapiens, THP-1, 5 h, read-out: % Effect at 30 μM relative to 2′3′-cGAMP. The gist of the method:
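THP1 cells at 0.8×10^6/mL were incubated with compounds for 5 h at 37 °C, and secreted IFN-β in the supernatant was measured by AlphaLISA. Percent effect was normalised to 30 uM cGAMP (positive) and 0.3% DMSO (negative) controls. EC50 came from a 4-parameter fit.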

The next test addresses T1, full-length HAQ STING (Homo sapiens, UniProt Q86WV6, G230A/H232R/R293Q/R71H).
T1 construct: made in house; host or cells: Trichoplusia ni (Hi-Five) insect cells, baculovirus generated in Sf21; crude membranes
As to the kind of experiment: 3H-cGAMP filtration binding assay (HAQ STING). The note with it: competition with tritiated cGAMP ligand; T. ni cell membranes overexpressing full-length HAQ STING.

The next test addresses T2, full-length WT STING (Homo sapiens, UniProt Q86WV6, H232R).
T2 construct: made in house; host or cells: Trichoplusia ni insect cells, baculovirus generated in Sf21; crude membranes
The experiment in a line: 3H-cGAMP filtration binding assay (WT STING). Particulars: competition with tritiated cGAMP ligand; T. ni cell membranes overexpressing full-length WT STING. How it is done:
The ability of compounds to bind STING is quantified by their ability to compete with tritiated cGAMP ligand for human STING receptor membrane using a radioactive filter-binding assay. The binding assay employs STING receptor obtained from Trichoplusia ni cell membranes (T. ni; Expression Systems, cat #94-002F, www.expressionsystems.com) overexpressing full-length WT STING and tritiated cGAMP ligand.
The basic WT STING filtration assay protocol is as follows:
16 nM of [^3H] c-GAMP ligand was prepared by diluting into assay buffer, and 50 uL of this working stock was manually added to each well of the assay plate. After ligand addition, 2 uL of either titrated test compound, DMSO control (Sigma #276855), or cold cGAMP control was added to the appropriate wells using a BIOMEK FX. The serially titrated compound was prepared on a Hamilton STARPlus CORE in a 96-well plate (Greiner, #651201) using a 1:3 ten-point dose response format. Following compound addition, a 2.2 ug/ml working concentration of STING membrane (SEQ. ID. No. 3) was prepared by diluting concentrated membrane into assay buffer (1×PBS; Invitrogen #SH30028.02) and douncing 7× using a manual tissue homogenizer (Wheaton, #357546). 148 uL of this prepared membrane was then manually added to each well of a 96-well deep-well polypropylene plate (Fisher Scientific, #12-566-121). Compound, ligand, and membrane then incubated for 60 min at RT before the contents of each assay plate were filtered through a 96-well GF/B filter plate (PerkinElmer, #6005250) using a TOMTEC MACH III Cell Harvester equipped with 20 mM HEPES buffer (Fisher Scientific, #BP299500). The filter plates were then dried at 55° C. for 30 min using a pressurized VWR oven before 30 uL of ULTIMA GOLD F scintillate was added to each well. Tritium levels for each reaction well were then measured using a PerkinElmer TopCount plate reader.
After normalization to controls, the percent activity for each compound concentration was calculated by measuring the amount of remaining radioactivity. The plot of percent activity versus the log of compound concentration was fit with a 4-parameter dose response equation to calculate EC50 values.

T1 sequence (Q86WV6 with tags, fused parts or gaps R71H/G230A/H232R/R293Q): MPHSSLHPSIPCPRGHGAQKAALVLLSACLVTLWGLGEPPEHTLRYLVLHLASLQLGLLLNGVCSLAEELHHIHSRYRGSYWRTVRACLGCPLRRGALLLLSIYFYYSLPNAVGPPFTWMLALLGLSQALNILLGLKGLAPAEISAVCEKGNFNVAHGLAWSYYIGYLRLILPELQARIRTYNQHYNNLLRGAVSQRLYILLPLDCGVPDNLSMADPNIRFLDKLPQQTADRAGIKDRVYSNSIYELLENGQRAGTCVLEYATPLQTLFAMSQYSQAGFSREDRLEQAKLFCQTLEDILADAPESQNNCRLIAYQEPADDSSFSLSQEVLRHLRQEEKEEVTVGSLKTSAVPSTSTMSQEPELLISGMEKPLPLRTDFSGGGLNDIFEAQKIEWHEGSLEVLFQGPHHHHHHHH
T2 sequence (Q86WV6 with tags, fused parts or gaps H232R): as the sequence (Q86WV6 with tags, fused parts or gaps R71H/G230A/H232R/R293Q) above, with H71R, A230G, Q293R counted along it

As for `Nc1nc2c(nnn2[C@@H]2S[C@@H]3COP(=O)(S)O[C@H]4[C@H](F)[C@H](n5ccc6c(=O)[nH]cnc65)O[C@@H]4COP(=O)(S)O[C@@H]2[C@@H]3F)c(=O)[nH]1` (single isomer, unassigned) [Example 50], in test [1], the “% Effect at 30 μM relative to 2′3′-cGAMP” value is given as 109%. Moreover, the EC50 at full-length HAQ STING worked out at 4 nM; at full-length WT STING, 9130 nM.
On to `Nc1nc2c(nnn2[C@@H]2O[C@@H]3COP(=O)(S)O[C@H]4[C@H](F)[C@H](n5ccc6c(=O)[nH]cnc65)O[C@@H]4COP(=O)(S)O[C@@H]2[C@H]3F)c(=O)[nH]1` (stereo partly drawn) [Example 48, 5-amino-3-[(5R,7R,8S,12aR,14R,15S,15aR,16S)-15,16-difluoro-2,10-dioxido-14-(4-oxo-3,4-dihydro-7H-pyrrolo[2,3-d]pyrimidin-7-yl)-2,10-disulfanyl-octahydro-12H-5,8-methanofuro[3,2-l] [1,3,6,9,11,2,10]pentaoxadiphosphacyclotetradecin-7-yl]-3,6-dihydro-7H-[1,2,3]triazolo[4,5-d]pyrimidin-7-one], for which, in test [1], the activation at 30 µM amounted to 159%. The EC50 turned out to be 2 nM on full-length HAQ STING and 205 nM on full-length WT STING.
Taken in the same sequence, the figures for `Nc1ncnc2c1ncn2[C@@H]1O[C@@H]2CO[P@@](=O)(S)O[C@@H]3[C@H](O)[C@@H](CO[P@](=O)(S)O[C@H]2[C@@H]1F)O[C@H]3n1ccc(=O)n2ccnc12` [Example 3, 8-[(2S,5R,7R,8R,10R,12aR,14R,15S,15aR, 16R)-14-(6-amino-9H-purin-9-yl)-15-fluoro-16-hydroxy-2,10-dioxido-2,10-disulfanyloctahydro-12H-5,8-methanofuro[3,2-l][1,3,6,9,11,2,10]pentaoxadiphosphacyclotetradecin-7-yl]imidazo [1,2-a]pyrimidin-5(8H)-one] were 20%, 140 nM and 1860 nM.
Taken in the same sequence, the figures for `Nc1ncnc2c1ncn2[C@@H]1O[C@@H]2CO[P@@](=O)(S)O[C@@H]3C[C@@H](CO[P@](=O)(S)O[C@H]2[C@@H]1F)O[C@H]3n1ccc(=O)n2ccnc12` (single isomer, unassigned) [Example 20] were 169%, 15 nM and 83 nM.
For `Nc1ncnc2c1ncn2[C@@H]1O[C@@H]2CO[P@@](=O)(S)O[C@@H]3[C@H](O)[C@@H](CO[P@@](=O)(S)O[C@H]2[C@@H]1F)O[C@H]3n1ccc(=O)c2nccn21` [Example 13, 5-[(2R,5R,7R,8R,10R,12aR,14R,15S,15aR, 16R)-14-(6-amino-9H-purin-9-yl)-15-fluoro-16-hydroxy-2,10-dioxido-2,10-disulfanyloctahydro-12H-5,8-methanofuro[3,2-l][1,3,6,9,11,2,10]pentaoxadiphosphacyclotetradecin-7-yl]imidazo [1,2-b]pyridazin-8(5H)-one], in test [1], the activation at 30 µM was determined as 334%. The figures for the 50% effective concentration (EC50) at full-length HAQ STING and at full-length WT STING were 238 nM and 1960 nM, respectively.
As to `Nc1nc2c(ncn2[C@@H]2O[C@@H]3COP(=O)(S)O[C@H]4[C@H](F)[C@H](n5ccc6c(=O)[nH]cnc65)O[C@@H]4COP(=O)(S)O[C@@H]2[C@@H]3F)c(=O)[nH]1` (single isomer, unassigned) [Example 40], the “% Effect at 30 μM relative to 2′3′-cGAMP” value in test [1] came out at 150%. Moreover, the values for the half-maximal effective concentration (EC50) on full-length HAQ STING and on full-length WT STING were 5 nM and 2830 nM, respectively.
With `O=c1[nH]cnc2c1ncn2[C@@H]1O[C@@H]2CO[P@@](=O)(S)O[C@@H]3C[C@@H](CO[P@@](=O)(S)O[C@H]2[C@@H]1F)O[C@H]3n1ccc(=O)n2ccnc12` [Example 29, 9-[(2R,5S,7R,8R,10R,12aR,14R,15S,15aR)-15-fluoro-2,10-dioxido-7-(5-oxoimidazo[1,2-a]pyrimidin-8(5H)-yl)-2,10-disulfanyloctahydro-12H-5,8-methanofuro[3,2-l][1,3,6,9,11,2,10]pentaoxadiphosphacyclotetradecin-14-yl]-1,9-dihydro-6H-purin-6-one], in test [1], the activation at 30 µM worked out at 150%. The figures for the concentration for a half-maximal effect (EC50) on full-length HAQ STING and on full-length WT STING were 45 nM and 136 nM, respectively.
Taken in the same sequence, the figures for `Nc1nc2c(ncn2[C@@H]2O[C@@H]3CO[P@@](=O)(S)O[C@H]4C[C@H](n5ccc6c(=O)[nH]cnc65)O[C@@H]4CO[P@@](=O)(S)O[C@@H]2C3)c(=O)[nH]1` (single isomer, unassigned) [Example 38] were 109%, 1 nM and 393 nM.
On to `Nc1nc2c(nnn2[C@@H]2O[C@@H]3COP(=O)(S)O[C@H]4C[C@H](n5ccc6c(=O)[nH]cnc65)O[C@@H]4COP(=O)(S)O[C@@H]2C3)c(=O)[nH]1` (single isomer, unassigned) [Example 42], for which the “% Effect at 30 μM relative to 2′3′-cGAMP” value in test [1] worked out at 72%. Besides, the figures for the EC50 on full-length HAQ STING and on full-length WT STING were 1 nM and 46 nM, respectively.
Taken in the same sequence, the figures for `Nc1ncnc2c1ncn2[C@@H]1O[C@@H]2COP(=O)(S)O[C@H]3[C@H](F)[C@H](n4ccc5c(=O)[nH]cnc54)O[C@@H]3COP(=O)(S)O[C@@H]1C2` (single isomer, unassigned) [Example 46] were 166%, 16 nM and 2400 nM.
On the same counts, the results for `Nc1nc2c(nnn2[C@@H]2S[C@@H]3COP(=O)(S)O[C@H]4[C@H](F)[C@H](n5ccc6c(=O)[nH]cnc65)O[C@@H]4COP(=O)(S)O[C@@H]2[C@@H]3F)c(=O)[nH]1` (single isomer, unassigned) [Example 49] are 163%, 1 nM and 756 nM.
`Nc1ncnc2c1ncn2[C@@H]1O[C@@H]2CO[P@@](=O)(S)O[C@@H]3[C@H](O)[C@@H](CO[P@](=O)(S)O[C@H]2[C@H]1O)O[C@H]3n1ccc(=O)n2ccnc12` [Example 2, 8-[(2S,5R,7R,8R,10R,12aR,14R,15R,15aS,16R)-14-(6-amino-9H-purin-9-yl)-15,16-dihydroxy-2,10-dioxido-2,10-disulfanyloctahydro-12H-5,8-methanofuro[3,2-l][1,3,6,9,11,2,10]pentaoxadiphospha-cyclotetradecin-7-yl]imidazo[1,2-a]pyrimidin-5(8H)-one]: the activation at 30 µM in test [1] is 44%. Further, the EC50 amounted to 2 nM at full-length HAQ STING and 32 nM on full-length WT STING.
For the compound `Nc1nc2c(nnn2[C@@H]2O[C@@H]3COP(=O)(S)O[C@H]4[C@H](F)[C@H](n5ccc6c(=O)[nH]cnc65)O[C@@H]4COP(=O)(S)O[C@@H]2C3)c(=O)[nH]1` (stereo partly drawn) [Example 45, 5-amino-3-[(5S,7R,8R,12aR,14R,15S, 15aR)-15-fluoro-2,10-dioxido-14-(4-oxo-3,4-dihydro-7H-pyrrolo[2,3-d]pyrimidin-7-yl)-2,10-disulfanyl-octahydro-12H-5,8-methanofuro[3,2-l][1,3,6,9,11,2,10]pentaoxadiphosphacyclotetradecin-7-yl]-3,6-dihydro-7H-[1,2,3]triazolo[4,5-d]pyrimidin-7-one], the activation at 30 µM in test [1] was determined as 135%. Further, the values for the EC50 on full-length HAQ STING and on full-length WT STING were 3 nM and 85 nM, respectively.
Taken in the same sequence, the figures for `Nc1nc2c(ncn2[C@@H]2O[C@@H]3CO[P@](=O)(S)O[C@H]4[C@H](F)[C@H](n5ccc6c(=O)[nH]cnc65)O[C@@H]4CO[P@@](=O)(S)O[C@@H]2C3)c(=O)[nH]1` [Example 41, 2-amino-9-[(2R,5S,7R,8R,10R,12aR,14R,15S,15aR)-15-fluoro-2,10-dioxido-14-(4-oxo-3,4-dihydro-7H-pyrrolo[2,3-d]pyrimidin-7-yl)-2,10-disulfanyl-octahydro-12H-5,8-methanofuro[3,2-l] [1,3,6,9,11,2,10]pentaoxadiphosphacyclotetradecin-7-yl]-l,9-dihydro-6H-purin-6-one] were 156%, 2 nM and 124 nM.
